# Assay results taken from US20110281808A1, “Composition and Method for Increasing Pre Workout Thermogenics” (ALLMAX NUTRITION INC., priority 2010, published 2011).
# Tests used:
# [1] = oral administration of 500 mg hordenine to horses; cited from earlier work
# [2] = after ingestion, horses; cited from earlier work
# [3] = system: central nervous system; details: cats under anaesthesia; cited from earlier work
# [4] = humans, from grapefruit juice; cited from earlier work
# [5] = oral administration of naringin with Yerba Mate, half life of caffeine and thermogenesis; assay type: in vivo; details: oral administration together with Yerba Mate (source of caffeine)
structure (smiles),measurement,setting,value
"CN(C)CCc1ccc(O)cc1 [hordenine, N,N-dimethyl-4-hydroxyphenylethylamine]",heart rate,[1],slight increase in heart rate
same,half-life,[2],24 min
same,muscle tone / spinal cord stimulation,[3],increases muscle tone
O=C1C[C@@H](c2ccc(O)cc2)Oc2cc(O)cc(O)c21 [naringenin],bioavailability,[4],bioavailable from grapefruit juice
"C[C@@H]1O[C@@H](O[C@H]2[C@H](Oc3cc(O)c4c(c3)O[C@H](c3ccc(O)cc3)CC4=O)O[C@H](CO)[C@@H](O)[C@@H]2O)[C@H](O)[C@H](O)[C@H]1O [naringin, 4′, 5,7-tri-hydroxyflavonone 7-rhamno-glucoside]",effect on half life of caffeine and thermogenesis,[5],acts synergistically with Yerba Mate
